pIC50: −log10 of the molar value.
How the values were obtained:
Interstitial collagenase = molecular target: T1, Interstitial collagenase (Homo sapiens, UniProt P03956)
T1 sequence (P03956 whole entry): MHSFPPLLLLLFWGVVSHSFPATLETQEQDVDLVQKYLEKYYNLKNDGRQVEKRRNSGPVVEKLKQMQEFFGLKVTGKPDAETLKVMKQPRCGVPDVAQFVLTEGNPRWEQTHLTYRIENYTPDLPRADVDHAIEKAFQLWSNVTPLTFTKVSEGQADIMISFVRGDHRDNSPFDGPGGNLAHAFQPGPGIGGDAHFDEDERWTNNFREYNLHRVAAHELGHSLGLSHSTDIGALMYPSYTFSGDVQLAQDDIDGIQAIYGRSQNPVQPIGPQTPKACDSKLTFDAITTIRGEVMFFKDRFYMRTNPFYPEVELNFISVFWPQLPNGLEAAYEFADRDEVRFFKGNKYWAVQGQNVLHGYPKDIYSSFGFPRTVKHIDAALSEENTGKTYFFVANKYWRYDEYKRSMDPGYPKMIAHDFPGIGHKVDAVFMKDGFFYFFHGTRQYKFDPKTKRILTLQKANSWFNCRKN

[1] = molecular target: 72 kDa type IV collagenase (Homo sapiens, UniProt P08253)
Chain of 72 kDa type IV collagenase (P08253 whole entry, the tested form may be a part): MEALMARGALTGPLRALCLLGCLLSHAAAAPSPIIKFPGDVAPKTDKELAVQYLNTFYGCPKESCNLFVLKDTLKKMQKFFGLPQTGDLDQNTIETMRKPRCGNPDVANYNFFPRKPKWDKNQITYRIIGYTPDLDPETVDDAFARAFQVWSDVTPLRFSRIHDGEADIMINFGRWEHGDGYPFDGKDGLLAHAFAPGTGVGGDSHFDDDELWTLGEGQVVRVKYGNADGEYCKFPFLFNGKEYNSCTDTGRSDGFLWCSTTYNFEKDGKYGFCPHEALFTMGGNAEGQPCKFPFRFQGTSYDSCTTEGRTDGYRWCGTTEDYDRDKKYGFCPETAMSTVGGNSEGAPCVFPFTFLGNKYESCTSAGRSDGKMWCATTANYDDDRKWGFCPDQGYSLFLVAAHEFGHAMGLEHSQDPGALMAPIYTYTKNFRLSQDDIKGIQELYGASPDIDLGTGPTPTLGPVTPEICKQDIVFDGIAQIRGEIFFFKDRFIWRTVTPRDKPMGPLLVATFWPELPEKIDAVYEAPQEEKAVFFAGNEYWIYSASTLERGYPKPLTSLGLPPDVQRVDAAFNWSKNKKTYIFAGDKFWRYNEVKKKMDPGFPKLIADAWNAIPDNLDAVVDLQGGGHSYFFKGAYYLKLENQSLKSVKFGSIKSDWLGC

[2] = molecular target: T2, Disintegrin and metalloproteinase domain-containing protein 10 (Homo sapiens, UniProt O14672)
T2 sequence (O14672 whole entry): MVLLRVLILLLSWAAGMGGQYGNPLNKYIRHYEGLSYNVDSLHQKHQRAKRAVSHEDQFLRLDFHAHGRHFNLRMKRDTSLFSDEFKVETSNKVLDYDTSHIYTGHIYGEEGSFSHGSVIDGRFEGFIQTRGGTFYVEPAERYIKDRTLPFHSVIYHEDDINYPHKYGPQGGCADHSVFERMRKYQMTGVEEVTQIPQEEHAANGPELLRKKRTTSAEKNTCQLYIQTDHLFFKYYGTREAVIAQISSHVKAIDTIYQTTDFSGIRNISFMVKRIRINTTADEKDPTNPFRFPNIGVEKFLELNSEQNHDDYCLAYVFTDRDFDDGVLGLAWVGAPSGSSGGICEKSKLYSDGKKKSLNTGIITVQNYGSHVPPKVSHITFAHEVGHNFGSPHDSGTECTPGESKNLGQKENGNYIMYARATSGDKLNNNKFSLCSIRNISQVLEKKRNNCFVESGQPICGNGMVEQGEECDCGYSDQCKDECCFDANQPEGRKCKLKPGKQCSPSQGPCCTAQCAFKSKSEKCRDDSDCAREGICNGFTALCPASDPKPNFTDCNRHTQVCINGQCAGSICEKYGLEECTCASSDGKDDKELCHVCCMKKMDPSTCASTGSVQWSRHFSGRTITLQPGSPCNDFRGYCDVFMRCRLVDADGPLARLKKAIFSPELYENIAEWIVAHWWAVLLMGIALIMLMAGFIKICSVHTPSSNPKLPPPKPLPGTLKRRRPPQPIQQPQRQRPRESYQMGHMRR

[3] = molecular target: T2, Disintegrin and metalloproteinase domain-containing protein 10; assay: Inhibition of HER2 sheddase in human BT474 cells; assay type: cell-based, BT-474
[4] = molecular target: Matrix metalloproteinase-9 (Homo sapiens, UniProt P14780); assay: Inhibition of MMP9
Chain of Matrix metalloproteinase-9 (P14780 whole entry): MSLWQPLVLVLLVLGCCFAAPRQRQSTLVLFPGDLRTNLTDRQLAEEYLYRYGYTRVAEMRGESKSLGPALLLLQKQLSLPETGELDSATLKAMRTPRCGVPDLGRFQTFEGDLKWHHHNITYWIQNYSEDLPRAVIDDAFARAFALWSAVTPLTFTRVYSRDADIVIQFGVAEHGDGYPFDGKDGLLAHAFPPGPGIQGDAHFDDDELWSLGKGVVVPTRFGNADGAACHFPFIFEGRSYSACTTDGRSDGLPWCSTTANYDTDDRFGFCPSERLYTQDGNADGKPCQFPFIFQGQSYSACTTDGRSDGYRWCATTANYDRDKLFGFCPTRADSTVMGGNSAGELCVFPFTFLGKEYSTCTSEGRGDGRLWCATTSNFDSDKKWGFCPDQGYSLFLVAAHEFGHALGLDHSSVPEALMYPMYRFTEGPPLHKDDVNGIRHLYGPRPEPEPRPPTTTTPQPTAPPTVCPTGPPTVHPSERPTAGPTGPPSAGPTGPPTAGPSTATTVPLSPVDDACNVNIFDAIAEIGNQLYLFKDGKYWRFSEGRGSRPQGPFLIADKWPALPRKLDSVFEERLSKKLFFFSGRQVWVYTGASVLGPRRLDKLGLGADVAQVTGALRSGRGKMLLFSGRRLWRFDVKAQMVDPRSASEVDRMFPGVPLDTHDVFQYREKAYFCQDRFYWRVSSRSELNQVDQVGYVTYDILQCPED

Stromelysin-1 = Stromelysin-1 (Homo sapiens, UniProt P08254); assay: Inhibition of MMP3
Chain of Stromelysin-1 (P08254 whole entry): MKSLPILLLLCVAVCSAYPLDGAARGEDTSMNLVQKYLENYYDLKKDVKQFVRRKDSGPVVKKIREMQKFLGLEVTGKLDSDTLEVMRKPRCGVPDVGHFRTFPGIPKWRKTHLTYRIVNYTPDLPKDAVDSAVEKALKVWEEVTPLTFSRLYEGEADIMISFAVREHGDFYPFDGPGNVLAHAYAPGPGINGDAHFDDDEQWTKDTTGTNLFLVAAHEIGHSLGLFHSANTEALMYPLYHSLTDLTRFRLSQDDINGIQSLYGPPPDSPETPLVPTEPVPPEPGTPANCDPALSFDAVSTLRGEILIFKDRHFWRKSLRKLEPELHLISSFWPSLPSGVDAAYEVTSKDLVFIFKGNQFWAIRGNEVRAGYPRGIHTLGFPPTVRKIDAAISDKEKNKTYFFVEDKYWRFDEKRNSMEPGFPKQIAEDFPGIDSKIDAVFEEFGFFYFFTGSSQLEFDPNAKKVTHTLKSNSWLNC

| SMILES | pIC50 (Interstitial collagenase) | pIC50 [1] | pIC50 [2] | pIC50 [3] | pIC50 [4] | pIC50 (Stromelysin-1) |
| --- | --- | --- | --- | --- | --- | --- |
| Cc1cc(C#N)ccc1C1CCN(S(=O)(=O)CC2(C(=O)NO)CCN(C(=O)OC[C@@H]3CCCN3)CC2)CC1 | < 5.30 | 5.90 | 8.04 | 8.19 |  |  |
| O=C(O[C@H]1CCOC1)N1CCC(CS(=O)(=O)N2CCC(c3ccccc3)C2)(C(=O)NO)CC1 (some centres not stated) |  | 6.26 | 6.58 | 6.45 |  |  |
| Cc1cc(C#N)ccc1C1=CCN(S(=O)(=O)CC2(C(=O)NO)CCN(C(=O)OC[C@H]3CCCN3)CC2)CC1 | < 5.30 | < 5.70 | 7.62 | 7.72 |  |  |
| Cc1cc(C)cc(C2CCN(S(=O)(=O)CC3(C(=O)NO)CCN(C(=O)O[C@H]4CCOC4)CC3)CC2)c1 | < 5.30 | 6.50 | 6.54 | 6.08 | 6.02 | 5.67 |
| O=C(O[C@H]1CCOC1)N1CCC(CS(=O)(=O)N2CCC(c3ccccc3F)CC2)(C(=O)NO)CC1 | < 5.30 | 6.87 | 7.36 | 7.12 | 7.00 | 6.03 |
| Cc1ccccc1C1CCN(S(=O)(=O)CC2(C(=O)NO)CCN(C(=O)OC3CCCC3O)CC2)CC1 (trans isomer) | 5.30 | 6.27 | 7.80 | 8.21 |  |  |
| Cc1ccccc1C1CCN(S(=O)(=O)CC2(C(=O)NO)CCN(C(=O)OC[C@H]3CCCN3)CC2)CC1 | < 5.30 | < 5.70 | 7.72 | 7.52 |  |  |
| Cc1cc(C2CCN(S(=O)(=O)CC3(C(=O)NO)CCN(C(=O)O[C@H]4CCOC4)CC3)CC2)cc(C)c1C#N | < 5.30 | 6.90 | 7.24 | 7.02 | 6.27 | 6.12 |
| O=C(O[C@H]1CCOC1)N1CCC(CS(=O)(=O)N2CC=C(c3ccccc3)C2)(C(=O)NO)CC1 |  | 7.28 | 6.48 | 6.99 |  |  |
| O=C(O[C@H]1CCOC1)N1CCC(CS(=O)(=O)N2CCC(c3ccccc3C(F)(F)F)CC2)(C(=O)NO)CC1 |  | < 5.70 | 5.98 | < 6.00 |  |  |
| Cc1cc(C#N)ccc1C1CCN(S(=O)(=O)CC2(C(=O)NO)CCN(C(=O)O[C@H]3CCOC3)CC2)CC1 | < 5.30 | 5.70 | 7.92 | 7.85 | < 5.30 | < 5.30 |
| Cc1ccccc1C1CCN(S(=O)(=O)CC2(C(=O)NO)CCN(C(=O)O[C@H]3CCOC3)CC2)CC1 | < 5.30 | < 5.70 | 7.74 | 7.39 | < 5.30 | < 5.30 |
| Cc1ccccc1C1=CCN(S(=O)(=O)CC2(C(=O)NO)CCN(C(=O)O[C@H]3CCOC3)CC2)CC1 |  | 5.70 | 7.74 | 6.88 |  |  |
| C#CCN1CCC(CS(=O)(=O)c2ccc(Oc3ccccc3)cc2)(C(=O)NO)CC1 | 5.06 | > 8.82 |  |  | > 8.82 | > 8.82 |
| Cc1ccccc1N1CCN(S(=O)(=O)CC2(C(=O)NO)CCN(C(=O)O[C@H]3CCOC3)CC2)CC1 |  | < 5.70 | 6.97 | 6.66 |  |  |
| Cc1cc(C(=O)N(C)C)ccc1C1CCN(S(=O)(=O)CC2(C(=O)NO)CCN(C(=O)O[C@H]3CCOC3)CC2)CC1 |  | 6.18 | < 5.70 | < 6.00 |  |  |

| SMILES | pIC50 (Interstitial collagenase) | pIC50 [1] | pIC50 [2] | pIC50 [3] | pIC50 [4] | pIC50 (Stromelysin-1) |
| --- | --- | --- | --- | --- | --- | --- |
| Cc1cc(F)ccc1C1CCN(S(=O)(=O)CC2(C(=O)NO)CCN(C(=O)O[C@H]3CCOC3)CC2)CC1 |  | < 5.70 | 7.04 | 6.85 |  |  |
| Cc1cc(C#N)ccc1C1CCN(S(=O)(=O)CC2(C(=O)NO)CCN(C(=O)OC[C@H]3CCCN3)CC2)CC1 | < 5.30 | 5.86 | 7.96 | 7.64 |  |  |
| Cc1ccccc1C1CCN(S(=O)(=O)CC2(C(=O)NO)CCN(C(=O)OC3(C)CCOC3)CC2)CC1 (configuration not stated) | < 5.30 | 6.25 | 7.96 | 7.44 |  |  |
| Cc1ccccc1C1CCN(S(=O)(=O)CC2(C(=O)NO)CCN(C(=O)OC3COCC3(C)C)CC2)CC1 (configuration not stated) | < 5.30 | 6.24 | 7.66 | 7.85 |  |  |
| O=C(O[C@H]1CCOC1)N1CCC(CS(=O)(=O)N2CC=C(c3ccccc3)CC2)(C(=O)NO)CC1 | 6.59 | 8.40 | 8.00 | 8.15 | 7.60 | 6.63 |
| O=C(O[C@H]1CCOC1)N1CCC(CS(=O)(=O)N2CCC(c3ccccc3)CC2)(C(=O)NO)CC1 | 6.12 | 7.74 | 7.55 | 7.66 | 7.66 | 6.44 |
| Cc1cc(C#N)ccc1C1=CCN(S(=O)(=O)CC2(C(=O)NO)CCN(C(=O)OC[C@@H]3CCCN3)CC2)CC1 | < 5.30 | < 5.70 | 7.47 | 7.57 |  |  |
| Cc1cc(C#N)ccc1C1CCN(S(=O)(=O)CC2(C(=O)NO)CCN(C(=O)OC3CCNC3)CC2)CC1 (configuration not stated) | < 5.30 | < 5.70 | 8.11 | 7.89 |  |  |
| N#Cc1ccccc1C1CCN(S(=O)(=O)CC2(C(=O)NO)CCN(C(=O)O[C@H]3CCOC3)CC2)CC1 |  | < 5.70 | < 5.70 | < 6.00 |  |  |
| N#Cc1ccc(C2CCN(S(=O)(=O)CC3(C(=O)NO)CCN(C(=O)O[C@H]4CCOC4)CC3)CC2)cc1 |  | 8.05 | 7.41 | 7.11 |  |  |
| Cc1ccccc1C1CCN(S(=O)(=O)CC2(C(=O)NO)CCN(C(=O)OC3CCNC3)CC2)CC1 (configuration not stated) | < 5.30 | 6.26 | 7.74 | 7.80 |  |  |
| Cc1cc(C#N)ccc1N1CCN(S(=O)(=O)CC2(C(=O)NO)CCN(C(=O)O[C@H]3CCOC3)CC2)CC1 | < 5.30 | < 5.30 | 7.59 | 7.60 | < 5.30 | < 5.30 |
| Cc1ccccc1C1CCN(S(=O)(=O)CC2(C(=O)NO)CCN(C(=O)OC[C@@H]3CCCN3)CC2)CC1 | < 5.30 | < 5.70 | 7.47 | 7.64 |  |  |
| Cc1cc(C#N)ccc1C1=CCN(S(=O)(=O)CC2(C(=O)NO)CCN(C(=O)O[C@H]3CCOC3)CC2)CC1 |  | 5.81 | 6.97 | 7.35 |  |  |
| O=C(O[C@H]1CCOC1)N1CCC(CS(=O)(=O)N2CCN(c3ccccc3)CC2)(C(=O)NO)CC1 | 6.11 | 7.89 | 7.82 | 7.89 | 7.11 | 6.03 |
